# Source: US11260011B2, “Use of neohesperidin” (NATURAL MEDICINE INSTITUTE OF ZHEJIANG YANGSHENGTANG CO., …, priority 2011, dated 2022)
# Where “and” joins values, the source holds several entries; their conditions need not be identical. Equal entries are not always repeated.
# Legend:
# [1] = Effect of topical application of neohesperidin on skin microcirculation by Laser Doppler Flowmetery; type: in vivo, Oryctolagus cuniculus; parameters: key to Working time point: —: represents the time point at which P < 0.1 did not appear during the 24 h test when 2% solution was administered orally
# Text: The experimental method for promoting microcirculation: Male Oryctolagus cuniculus weighted 3.0-3.5 kg were used. After shaving the hair on the back of the Oryctolagus cuniculus, 10 points for testing blood flow were marked with a marker pen on the hairless skin of the rabbit, i.e. 5 points for each of the right side and the left side, and aorta was avoided when drawing the points. Before smearing the sample, the basic values of blood flow at the 10 points of rabbits of each experimental group were determined by Laser Doppler Flowmetery. […] 2% (w/v) solution was orally administrated by a similar method in a volume 100 times compared to the volume used in the group wherein the 2% (w/v) solution was administered by smearing. After administration, the blood flow value was determined every hour at the same point by Laser Doppler Flowmetery for 24 h, and the variation index of blood flow was calculated to evaluate the effect of neohesperidin on the back blood of rabbits, wherein a higher variation index of blood flow indicated a better effect of promoting microcirculation. The experimental results were statistically analyzed by SPSS11.5 software, and t-test was applied to the measured data to evaluate the experimental results. When P<0.1, the data may be regarded as statistically significant. In the results of Table 1, all the time points with P<0.1 in the 24-h test were listed.
# [2] = topical application to human skin; cited from earlier work
Compound,improvement of skin microcirculation after topical administration to skin surface [2],also measured
COc1ccc([C@@H]2CC(=O)c3c(O)cc(O[C@@H]4O[C@H](CO)[C@@H](O)[C@H](O)[C@H]4O[C@@H]4O[C@@H](C)[C@H](O)[C@@H](O)[C@H]4O)cc3O2)cc1O [neohesperidin],,"Working time point ([1]; 0.5% (w/v) solution, smearing on back skin, time points with P<0.1 in 24-h test): 6 h; Working time point ([1]; 1% (w/v) solution, smearing on back skin, time points with P<0.1 in 24-h test): 2 h and 3 h; Working time point ([1]; 2% (w/v) solution, orally, 24-h test): —; blood flow in skin microvessels as compared to the blank side ([1]; smearing backs of rabbits with different concentrations): significantly enhanced"
C[C@@H]1CC[C@@]2(OC1)O[C@H]1C[C@H]3[C@@H]4CC=C5C[C@@H](O)C[C@@H](O)[C@]5(C)[C@H]4CC[C@]3(C)[C@H]1[C@@H]2C [ruscogenin],cannot significantly improve skin microcirculation,
ginkgo flavone,cannot significantly improve skin microcirculation,
ginsenoside,cannot significantly improve skin microcirculation,
tanshinone,cannot significantly improve skin microcirculation,
β-aescin,cannot significantly improve skin microcirculation,
